# Measured values reported in patent publication US20250340568A1, “SOLID FORMS OF A MACROCYCLIC COMPOUNDS AS CFTR MODULATORS AND THEIR PREPARATION” (Vertex Pharmaceuticals Incorporated, priority 2022, published 2025).
# Target: T1, CFTR (F508del/MF-HBE cells) (Homo sapiens, UniProt P13569, DEL508-508)
# T1 construct: human bronchial epithelial (HBE) cells derived from CF subjects heterozygous for F508del and a minimal function CFTR mutation; endogenous in cells; host or cells: primary human bronchial epithelial cells from CF subjects (F508del/MF genotype), differentiated at air-liquid interface
# Assay: Ussing chamber assay of CFTR-mediated short-circuit currents (potentiator identification)
# Type: cell-based
# Settings: incubated 18-24 hours at 37° C. with 10 μM (14S)-8-[3-(2-{dispiro[2.0.2.1]heptan-7-yl}ethoxy)-1H-pyrazol-1-yl]-... trione (Compound VII), 20% human serum, read-out: CFTR-modulating activity EC50
# Protocol: Ussing Chamber Assay of CFTR-mediated short-circuit currents
# Ussing chamber experiments were performed using human bronchial epithelial (HBE) cells derived from CF subjects heterozygous for F508del and a minimal function CFTR mutation (F508del/MF-HBE) and cultured as previously described (Neuberger T, Burton B, Clark H, Van Goor F Methods Mol Biol 2011:741:39-54). After four days the apical media was removed, and the cells were grown at an air liquid interface for >14 days prior to use.
# To isolate the CFTR-mediated short-circuit (ISC) current, F508del/MF-HBE grown on Costar® Snapwell™ cell culture inserts were mounted in an Ussing chamber and the transepithelial ISC was measured under voltage-clamp recording conditions (Vhold=0 mV) at 37° C. The basolateral solution contained (in mM) 145 NaCl, 0.83 K2HPO4, 3.3 KH2PO4, 1.2 MgCl2, 1.2 CaCl2), 10 Glucose, 10 HEPES (pH adjusted to 7.4 with NaOH) and the apical solution contained (in mM) 145 NaGluconate, 1.2 MgCl2, 1.2 CaCl2), 10 glucose, 10 HEPES (pH adjusted to 7.4 with NaOH) and 30 μM amiloride to block the epithelial sodium channel. […] The CFTR-mediated ISC (μA/cm^2) for each condition was determined from the peak forskolin response to the steady-state current following inhibition.
# The activity of the CFTR potentiator compounds on the CFTR-mediated ISC was determined in Ussing chamber studies as described above. […]
# T1 sequence (P13569 with tags, fused parts or gaps DEL508-508): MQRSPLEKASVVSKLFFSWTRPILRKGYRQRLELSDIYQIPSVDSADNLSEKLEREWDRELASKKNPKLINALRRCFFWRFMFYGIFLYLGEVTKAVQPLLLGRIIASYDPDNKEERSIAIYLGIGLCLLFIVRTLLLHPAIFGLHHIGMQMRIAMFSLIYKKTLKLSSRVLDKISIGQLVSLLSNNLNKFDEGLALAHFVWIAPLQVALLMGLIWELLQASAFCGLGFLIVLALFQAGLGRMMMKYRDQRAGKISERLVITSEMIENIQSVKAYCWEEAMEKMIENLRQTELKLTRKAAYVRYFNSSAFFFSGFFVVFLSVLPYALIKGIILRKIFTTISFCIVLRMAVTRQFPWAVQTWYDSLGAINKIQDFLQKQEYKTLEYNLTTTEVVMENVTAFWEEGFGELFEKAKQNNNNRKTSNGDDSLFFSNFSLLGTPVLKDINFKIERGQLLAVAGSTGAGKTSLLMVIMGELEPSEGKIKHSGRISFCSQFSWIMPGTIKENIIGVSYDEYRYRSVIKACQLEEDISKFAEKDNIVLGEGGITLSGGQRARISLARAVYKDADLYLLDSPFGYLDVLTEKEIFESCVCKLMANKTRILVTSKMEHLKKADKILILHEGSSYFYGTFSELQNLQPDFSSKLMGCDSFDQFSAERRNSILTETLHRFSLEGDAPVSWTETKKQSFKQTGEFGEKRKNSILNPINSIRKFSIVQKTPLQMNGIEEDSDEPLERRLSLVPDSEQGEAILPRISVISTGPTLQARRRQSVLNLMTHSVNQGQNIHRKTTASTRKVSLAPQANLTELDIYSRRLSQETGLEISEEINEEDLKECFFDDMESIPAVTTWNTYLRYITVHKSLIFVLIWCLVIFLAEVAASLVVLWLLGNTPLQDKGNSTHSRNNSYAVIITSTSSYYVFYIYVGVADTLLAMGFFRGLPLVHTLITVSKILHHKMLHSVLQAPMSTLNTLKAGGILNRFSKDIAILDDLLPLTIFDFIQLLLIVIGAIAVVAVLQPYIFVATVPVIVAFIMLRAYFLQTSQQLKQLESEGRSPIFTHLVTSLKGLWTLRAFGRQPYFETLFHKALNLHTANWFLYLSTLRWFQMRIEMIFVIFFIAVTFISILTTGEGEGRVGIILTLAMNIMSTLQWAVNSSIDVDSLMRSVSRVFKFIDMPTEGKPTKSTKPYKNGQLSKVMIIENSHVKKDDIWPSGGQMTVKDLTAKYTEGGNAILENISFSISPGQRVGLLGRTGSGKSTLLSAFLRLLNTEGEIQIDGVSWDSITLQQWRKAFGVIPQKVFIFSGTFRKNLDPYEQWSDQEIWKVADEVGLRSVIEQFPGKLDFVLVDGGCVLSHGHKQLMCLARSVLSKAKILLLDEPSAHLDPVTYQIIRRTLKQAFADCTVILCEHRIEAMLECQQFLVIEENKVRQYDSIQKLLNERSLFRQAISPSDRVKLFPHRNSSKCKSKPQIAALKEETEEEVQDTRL
compound,measurement,value
"CC1(C)CCCCC[C@](O)(C(F)(F)F)C2=NN=C(O2)c2nc(c(C(F)(F)F)cc2N)N1 [Compound I, (6R)-17-amino-12,12-dimethyl-6,15-bis(trifluoromethyl)-19-oxa-3,4,13,18-tetrazatricyclo[12.3.1.12,5]nonadeca-1(18),2,4,14,16-pentaen-6-ol]",EC50,< 500 nM
